Tests used:
[1] = test system: sclera of enucleated young rabbit eyes; assay: Eye expansion test - whole eye treatment, scleral area analysis; conditions: for reduction in expansion, treated vs untreated: ICG with sodium iodide (NaI) additive in D2O; for reduction in expansion, fully treated eyes vs NIR light only treated eyes: ICG/NaI/D2O with NIR light
Method: Enucleated young rabbit eyes were provided from collaborators at University of California, San Francisco (UCSF). These were shipped overnight and used within 1-4 days. Upon arrival, they were stored in Dulbecco's buffer in a 4° C. refrigerator until use. They were trimmed of fat and muscle to provide a smooth surface for easy identification of changes to the size. All irradiations used an 810 nm LED (Thor) set to a power of ˜200 mW.
Untreated eyes received no further modification and were stored in Dulbecco's buffer in the refrigerator until use. Eyes to be treated had their epithelial layer on the cornea removed. An ethanol-soaked Kim wipe was applied to the cornea for two minutes and then a scalpel blade was used to scrape the layer off. Removal was confirmed using a fluorescein strip and long UV light. […] The eye was placed cornea up on a damp (D2O) gauze pad and then placed on a 10 mL beaker. The LED was placed above the eye to irradiate down for 10 minutes with 5-15 drops of either the soaking solution or D2O being applied every 2 minutes to keep the sample hydrated. Once completed, the irradiation process was repeated for the reverse side of the eye (by the retina), then the eye on its side (half cornea & sclera), and finally on the reverse side of the sideways eye. This was a total of four 10 minute irradiations aimed to treat the whole eye.
The eye expansion setup followed the protocol outlined below. The eyes were placed on a stand and 30 gauge needle was inserted from underneath. The chamber was filled with Dulbecco's buffer and two different antibiotics mixtures—an ophthalmic solution of Trimethoprim Sulfate and Polymyxin B Sulfate and an ophthalmic ointment of Neomycin and Polmyxin B Sulfates and Bacitracin Zinc. A low pressure (˜22 mm Hg) was applied for one hour to equilibrate the eyes prior to applying a higher pressure (˜85 mm Hg) for the experiment. This is done by raising an IV bag to a predetermined height above the eye chamber. The higher pressure was applied from 12-36 hours (or until rupture) depending on the experiment. Two photos were taken every 15 minutes during both the low and high-pressure applications. […]
Image J was used to calculate the scleral area for comparison. […] Measured scleral areas where then converted to percent change from the initial time point (when the higher pressure was first applied). These values were averaged and standard errors calculated for comparison.
To evaluate the ability of ICG to crosslink the sclera, a similar set of eye expansion tests was performed. […] To quantify this observation, the area of the sclera was calculated using Image J for the initial and 12-hour time points (FIGS. 7(A-B)). Expansion from the initial time point was calculated and compared as a percent.

[2] = Singlet oxygen generation by DPBF decay (UV-Vis), 810 nm LED; type: physicochemical
Excerpt: To evaluate the efficiency of singlet oxygen generation by ICG and an analog (IR-820) in vitro, the singlet oxygen generation was monitored. 1,3-diphenylisobenzofuran (DPBF), a compound that decays in the presence of singlet oxygen, and singlet oxygen sensor green (SOSG), a dye that increases fluorescence in the presence of singlet oxygen, were used as markers to indicate singlet oxygen generation by ICG and IR-820. […] For SOSG analysis, the fluorescence turn-on in H2O and D2O was compared to that observed when riboflavin—an FDA approved dye used in conjunction with UV light to treat keratoconus (corneal expansion)—was usedIn all cases, an increase in fluorescence emission at 525 nm was observed (using a 488nm excitation).

Q: With `CC1(C)C(/C=C/C=C/C=C/C=C2\N(CCCCS(=O)(=O)O)c3ccc4ccccc4c3C2(C)C)=[N+](CCCCS(=O)(=O)[O-])c2ccc3ccccc3c21` [ICG, indocyanine green] as the molecule, how does the “reduction in expansion, treated vs untreated” value ([1]; 12 hour time point) read?
A: ~62%

Q: And the “reduction in expansion, treated vs untreated” value ([1]; 24 hour time point)?
A: 70%

Q: And the “reduction in expansion, fully treated eyes vs NIR light only treated eyes” value ([1]; 12 hour time point)?
A: ~69%

Q: And the “reduction in expansion, fully treated eyes vs NIR light only treated eyes” value ([1]; 24 hour time point)?
A: ~72%

Q: And the “ICG and DPBF signal (UV-Vis) upon irradiation” value ([2]; 810 nm, 375 mW LED, in water)?
A: decrease

Q: And the “singlet oxygen generation (DPBF analysis)” value ([2]; in H2O or D2O)?
A: singlet oxygen generation was observed

Source: US20230173071A1, “TREATMENT OF MYOPIA AND OTHER OCULAR CONDITIONS USING SINGLET OXYGEN GENERATED FROM DYES ACTIVATED BY NEAR-INFRARED LIGHT” (California Institute of Technology, priority 2018, published 2023)
